Consider 15 compounds from patent US7410989B2, “Compounds, methods and compositions useful for the treatment of bovine viral diarrhea virus (BVDV) infection and hepatitis C virus (HCV) infection” (The University of North Carolina at Chapel Hill, priority 2001, dated 2008).

What is called melting point is the temperature of the solid-liquid transition.

Where a name gives a salt, the structure may show the parent alone.

One series deals with BVDV. Kind of series: Screening of antiviral compounds for anti-BVDV activity in MDBK cells; virus titre by immunoperoxidase monolayer assay. The class given is cell-based, bovine viral diarrhea virus. The settings on record: day 3; for Day 3 Media % Control / Day 3 Media TCID50/mL: culture medium. The procedure:
2.0 cm^2 wells in a 24-well plate were seeded with 50 μl of medium from 12 ml of MEM-eq (minimum essential medium (MEM) with Earle's salts supplemented with 10% (v/v) equine serum, sodium bicarbonate (0.75 mg/ml), L-glutamine (0.29 mg/ml), penicillin G (100 U/ml), streptomycin (100 μg/ml), and amphotericin B (0.25 μg/ml)), which was derived by trypsinization of a confluent monolayer of Madin Darby Bovine Kidney (MDBK) cells in a 25 cm^2 flask. Cells were incubated at 38.5° C. with 5% CO2 for 24 hours. The average number of cells per well was determined and later used to calculate appropriate multiplicities of infection (MOI) of BVDV virus. […]
The inoculated cells incubated for one hour at 38.5° C. with 5% CO2 in humidified air. The medium was removed from the wells, and the cells washed one time with Ca^2+ and Mg^2+-free PBS comprising antiviral compound (12.5 μM) (cells in the wells not initially treated with antiviral compounds were washed without antiviral compound). […] Three days post-inoculation, medium was removed and stored at −20° C. for assay. […] Seven days post-inoculation, medium was removed and stored at −80° C. for serial dilution & assay.
The MDBK cells were resuspended in MEM-eq with no antiviral compound. Uterine tubal cells (UTC) were freeze-thawed and stored at −80° C. for analysis. UTC lysates were serially diluted with medium from Day 7 and assayed by immunoperoxidase for the presence of BVDV.
All samples were assayed for BVDV using the immunoperoxidase monolayer assay as described in A. Afshar et al., Can J Vet Res; 55:91-93 (1991). Samples were assayed in triplicate by adding 50 μL of MEM-eq containing approximately 2.5×10^3 MDBK cells to 50-μL of each sample supplemented with 50 μL of fresh MEM-eq in a 96-well culture plate. Plates were incubated for 72 h at 38.5° C. in a humidified atmosphere of 5% CO2 and air before the immunoperoxidase labeling technique was performed as follows:
After fixation, potentially infected cells were incubated with monoclonal antibodies D89 (M. L. Vickers et al., J Vet Diagn Invest 2, 300-302 (1990); Xue W et al., J Clin Microbiol 28, 1688-1693 […] specific for E2/gp53, a major envelope glycoprotein of BVDV (Xue W et al., Vet Microbiol 57, 105-118 (1997)) and 20.10.6 specific for NS3-p80, a conserved nonstructural protein (W. V. Corapi et al., Am J Vet Res 51, 1388-1394 (1990)). After washing with PBS and Tween 20 to remove unbound antibodies, peroxidase-conjugated rabbit anti-mouse IgG (Jackson Immuno Research Lab, West Grove, Pa.) was added. After a short incubation period, unbound peroxidase-conjugated antibody was removed by washing with PBS and Tween 20. Finally, the enzyme substrate, aminoethyl carbazole (Zymed Laboratories, Inc., South San Francisco, Calif.), which produces a reddish-brown color when oxidized by horseradish peroxidase, was added. Color change was visualized under light microscopy and compared to known positive and negative controls on each plate.
The tissue culture infective dose 50% (TCID50)/ml of the exposure aliquot was determined by the method of Reed and Muench (L. J. Reed and H. Muench, Am J Hygiene 27, 493-497 (1938). Results of viral detection assays were compared using a Pearson Chi-square test statistic (J. Sall and A. Lehman, JMP Start Statistics (Duxbury Press, Belmont, Calif. (1996), 195-211).

Setting [1] is: compound at 0.2 μm, BVDV MOI 0.05.
Where [2] appears, read: compound at 0.4 μm, BVDV MOI 0.05.
Setting [3] is: compound at 0.7 μm, BVDV MOI 0.05.
Where [4] appears, read: compound at 1.5 μm, BVDV MOI 0.05.
Where [5] appears, read: compound at 3 μm, BVDV MOI 0.05.
[6] abbreviates: compound at 6 μm, BVDV MOI 0.05.
[7] abbreviates: compound at 12 μm, BVDV MOI 0.05.
[8] abbreviates: compound at 25 μm, BVDV MOI 0.05.
Setting [9] is: 12.5 μM compound, BVDV MOI 0.5, titre as % of no-antiviral control.

For the compound `Cc1cc(NC(=N)N)ccc1-c1ccc(-c2ccc(NC(=N)N)cc2C)o1.Cl.Cl`, the melting point is 265 to 271 °C (dec.).
For `Cl.Cl.N=C(N)Nc1ccc(-c2ccc(-c3ccc(NC(=N)N)cc3Cl)o2)c(Cl)c1`, the melting point was 300 to 304 °C (dec.).
`Nc1ccc(-c2ccc(-c3nc4ccc(C5=NCCN5)cc4[nH]3)o2)cc1` (as salt: salt) [DB 456, 2-[5 (6)-{2-imidazolinyl}-2-benzimidazoyl]-5-(4-aminophenyl)furan] came in with a melting point greater than 300 °C.
The compound `O=[N+]([O-])c1ccc(-c2ccc(-c3nc4ccc(C5=NCCN5)cc4[nH]3)o2)cc1` (as salt: salt) [DB 457, 2-[5 (6)-{2-imidazolinyl}-2-benzimidazoyl]-5-(4-nitrophenyl)furan] had a melting point greater than 300 °C.
Regarding `Nc1ccc(-c2ccc(-c3nc4ccc(C5=NCCN5)cc4[nH]3)o2)cc1` [DB 456, 2-[5 (6)-{2-imidazolinyl}-2-benzimidazoyl]-5-(4-aminophenyl)furan], the “Day 3 Cell Lysates % Control” value worked out at 100.0000% with BVDV (setting [1]); 1000.0000% in the series with BVDV (setting [2]); 1000.0000% with BVDV (setting [3]); 1000.0000% in the series with BVDV (setting [4]); 177.1429% in the series with BVDV (setting [5]); 10.0000% in the series with BVDV (setting [6]). Moreover, the figures for the “Day 3 Cell Lysates % Control” value in the series with BVDV (setting [7]) and in the series on BVDV (setting [8]) were 1.0000% and 0.5714%, respectively. Also, the “Day 3 Cell Lysates TCID50/mL” value in the series with BVDV (setting [1]) was 3.50E+05 TCID50/mL; with BVDV (setting [2]), 3.50E+06 TCID50/mL; with BVDV (setting [3]), 3.50E+06 TCID50/mL; in the series with BVDV (setting [4]) it was 3.50E+06 TCID50/mL; in the series with BVDV (setting [5]), 6.20E+05 TCID50/mL; in the series on BVDV (setting [6]), 3.50E+04 TCID50/mL. The “Day 3 Cell Lysates TCID50/mL” value in the series on BVDV (setting [7]) is recorded as 3.50E+03 TCID50/mL; in the series with BVDV (setting [8]), 2.00E+03 TCID50/mL. Moreover, the “Day 3 Media % Control” value in the series on BVDV (setting [1]) came to 31.5000%; with BVDV (setting [2]), 31.5000%; in the series with BVDV (setting [3]), 31.5000%; in the series on BVDV (setting [4]), 25.5000%; in the series on BVDV (setting [5]) it was 17.5000%; with BVDV (setting [6]), 1.7500%. Also, the “Day 3 Media % Control” value with BVDV (setting [7]) was determined as 0.0310%; in the series on BVDV (setting [8]) it was 0.1750%. Besides, the “Day 3 Media TCID50/mL” value in the series on BVDV (setting [1]) is 6.30E+05 TCID50/mL; in the series with BVDV (setting [2]), 6.30E+05 TCID50/mL; in the series with BVDV (setting [3]) it was 6.30E+05 TCID50/mL; in the series with BVDV (setting [4]) it was 5.10E+05 TCID50/mL; in the series on BVDV (setting [5]), 3.50E+05 TCID50/mL; in the series on BVDV (setting [6]), 3.50E+04 TCID50/mL. In addition, the “Day 3 Media TCID50/mL” value in the series on BVDV (setting [7]) worked out at 6.20E+02 TCID50/mL; in the series on BVDV (setting [8]) it was 3.50E+03 TCID50/mL.
On to `O=[N+]([O-])c1ccc(-c2ccc(-c3nc4ccc(C5=NCCN5)cc4[nH]3)o2)cc1` [DB 457, 2-[5 (6)-{2-imidazolinyl}-2-benzimidazoyl]-5-(4-nitrophenyl)furan], for which, in the series on BVDV (12.5 μM compound, BVDV MOI 0.5), the “Day 3 Cell Lysates TCID50/mL” value came out at 3.50E+02 TCID50/mL and the “Day 3 Media TCID50/mL” value stood at 1.00E+02 TCID50/mL. Also, in the series with BVDV (setting [9]), the “Day 3 Cell Lysates % Control” value was 0.0056% and the “Day 3 Media % Control” value was determined as 0.0029%.
With `CC(C)NC(=N)c1ccc2[nH]c(-c3ccc(-c4ccc([N+](=O)[O-])cc4)o3)nc2c1` [DB 458, 2-[5 (6)-{N-isopropylamidino}-2-benzimidazoyl]-5-(4-nitrophenyl)furan], in the series on BVDV (12.5 μM compound, BVDV MOI 0.5), the “Day 3 Cell Lysates TCID50/mL” value is recorded as “Negative” and the “Day 3 Media TCID50/mL” value was “Negative”.
On to `CC(C)NC(=N)c1ccc2[nH]c(-c3ccc(-c4ccc(N)cc4)o3)nc2c1` [DB 459, 2-[5(6)-N-isopropylamidino-2-benzimidazoyl]-5-(4-aminophenyl)furan], for which, in the series on BVDV (12.5 μM compound, BVDV MOI 0.5), the “Day 3 Cell Lysates TCID50/mL” value is on record as 1.00E+02 TCID50/mL and the “Day 3 Media TCID50/mL” value is recorded as “Negative”. In the series with BVDV (setting [9]), the “Day 3 Cell Lysates % Control” value was 0.0016%.
As for `COc1ccc(-c2ccc(-c3ccc(C4=NCCN4)cc3)o2)cc1` [DB 606], in the series on BVDV (12.5 μM compound, BVDV MOI 0.5), the “Day 3 Cell Lysates TCID50/mL” value is “Negative” and the “Day 3 Media TCID50/mL” value is “Negative”.
As for `Cc1cc(NC(=N)N)ccc1-c1ccc(-c2ccc(NC(=N)N)cc2C)o1` [DB 680], in the series on BVDV (12.5 μM compound, BVDV MOI 0.5), the “Day 3 Cell Lysates TCID50/mL” value was “Negative” and the “Day 3 Media TCID50/mL” value is “Negative”.
Consider `N=C(N)Nc1ccc(-c2ccc(-c3ccc(NC(=N)N)cc3C(F)(F)F)o2)c(C(F)(F)F)c1` [DB 701], for which, in the series with BVDV (12.5 μM compound, BVDV MOI 0.5), the “Day 3 Cell Lysates TCID50/mL” value was 3.50E+04 TCID50/mL and the “Day 3 Media TCID50/mL” value is 6.20E+03 TCID50/mL. For the same compound, in the series on BVDV (setting [9]), the “Day 3 Cell Lysates % Control” value amounted to 0.5645% and the “Day 3 Media % Control” value is listed as 0.1771%.
`N=C(N)Nc1ccc(-c2ccc(-c3cccc(NC(=N)N)c3)o2)cc1` [DB 705]: in the series with BVDV (12.5 μM compound, BVDV MOI 0.5), the “Day 3 Cell Lysates TCID50/mL” value is given as “Negative” and the “Day 3 Media TCID50/mL” value is “Negative”.
Take `N=C(N)Nc1ccc(-c2ccc(-c3ccc(NC(=N)N)cc3Cl)o2)c(Cl)c1` [DB 708]: in the series on BVDV (12.5 μM compound, BVDV MOI 0.5), the “Day 3 Cell Lysates TCID50/mL” value is “Negative” and the “Day 3 Media TCID50/mL” value is “Negative”.
Turning to `COc1cc(NC(=N)N)ccc1-c1ccc(-c2ccc(NC(=N)N)cc2OC)o1` [DB 711], in the series with BVDV (12.5 μM compound, BVDV MOI 0.5), the “Day 3 Cell Lysates TCID50/mL” value is recorded as 2.00E+07 TCID50/mL and the “Day 3 Media TCID50/mL” value is given as 2.40E+05 TCID50/mL. Also, in the series with BVDV (setting [9]), the “Day 3 Cell Lysates % Control” value worked out at 322.5806% and the “Day 3 Media % Control” value stood at 6.8571%.
For the compound `Cc1cc(NC(=N)N)ccc1-c1ccc(-c2ccc(NC(=N)N)cc2C)s1` [DB 752], in the series with BVDV (12.5 μM compound, BVDV MOI 0.5), the “Day 3 Cell Lysates TCID50/mL” value is 6.20E+02 TCID50/mL and the “Day 3 Media TCID50/mL” value is on record as “Negative”. The “Day 3 Cell Lysates % Control” value with BVDV (setting [9]) is recorded as 0.01%.
